From US11899025B2, “Pharmaceutical composition for preventing or treating neurodegenerative diseases comprising COX2 acetylating agent as active ingredient” (KYUNGPOOK NATIONAL UNIVERSITY INDUSTRY-ACADEMIC COOPERATION …, priority 2018, dated 2024)

How the values were obtained:
NP-C mice = assay: Niemann-Pick (NP-C) animal model: immunofluorescence, Rota-rod, Beam test; type: in vivo, mouse; settings: 1 month-old NPC mice, 5 mg/kg daily for 4 weeks, subcutaneous
Source text: It has been approved for mouse experiments by the Kyungpook National University Institutional Animal Care and Use Committee (IACUC). A transgenic mouse line overexpressing APPswe (hAPP695swe) or PS1 (presenilin-1M146V) based on C57BL/6 mice (Charles River, UK) was used. [Hereinafter, APP mouse: mouse overexpressing APPswe, PS1 mouse: mouse overexpressing presenilin-1M146V; GlaxoSmithKline]. As an Alzheimer's (AD) animal model, SphK1 tg (SphK1 gene overexpressing mouse) was crossed with APP mice and APP/PS1 mice to prepare APP/PS1/SphK1 tg mice. Niemanpick (NP-C) animal model, Balb/C (Orient, Wild type), NPC mutant mouse lacking NPC1 gene (Provided by Riken, Japan, NP-C mice; less weight than normal mice of the same age, and severe motor function loss from 4 to 6 weeks of age, limb tremors and seizures appear, and lifespan is approximately 9 to 10 weeks. Is) was used. As an animal model for amyotrophic lateral sclerosis (ALS), a transgenic mouse (FUS) line overexpressing RUS R521C based on C57BL/6 mice (Charles River, UK) was used.
After fixing the cerebral and hippocampus of the mouse, anti-20G10 (mouse, 1:1000) against amyloid-β (Aβ) 42 and anti-G30 (rabbit, 1:1000) against Aβ 40, anti-MAP2 (chicken, 1:2000), anti-Synaptophysin (mouse, 1:100), anti-Synapsin1 (rabbit, 1:500), anti-PSD95 (mouse, 1:100), anti-Iba-1 (rabbit, 1:500), Anti-GFAP (rabbit, 1:500) was cultured together. The site was analyzed using a laser scanning confocal microscope or Olympus BX51 microscope equipped with Fluoview SV1000 imaging software (Olympus FV1000, Japan). Metamorph software (Molecular Devices) was used to quantify the percentage of the area of the stained area relative to the area of the total tissue.
To check the motor ability of each experimental group mice, a Rota-rod, Beam test, Tail suspension test, and Hanging wired test were performed. […] The endurance time of the experimental animal was measured in seconds, and the average value was recorded. […] In the Beam test, the time taken to move to the end point after placing the mouse at the start point of a 12 mm wide bar was measured. […]

COX2 = target: T1, COX2 (Homo sapiens, UniProt P35354); assay: LC-MS/MS identification of the COX2 acetylation site; type: biochemical; settings: FIG. 8d
T1 sequence (P35354 18-604): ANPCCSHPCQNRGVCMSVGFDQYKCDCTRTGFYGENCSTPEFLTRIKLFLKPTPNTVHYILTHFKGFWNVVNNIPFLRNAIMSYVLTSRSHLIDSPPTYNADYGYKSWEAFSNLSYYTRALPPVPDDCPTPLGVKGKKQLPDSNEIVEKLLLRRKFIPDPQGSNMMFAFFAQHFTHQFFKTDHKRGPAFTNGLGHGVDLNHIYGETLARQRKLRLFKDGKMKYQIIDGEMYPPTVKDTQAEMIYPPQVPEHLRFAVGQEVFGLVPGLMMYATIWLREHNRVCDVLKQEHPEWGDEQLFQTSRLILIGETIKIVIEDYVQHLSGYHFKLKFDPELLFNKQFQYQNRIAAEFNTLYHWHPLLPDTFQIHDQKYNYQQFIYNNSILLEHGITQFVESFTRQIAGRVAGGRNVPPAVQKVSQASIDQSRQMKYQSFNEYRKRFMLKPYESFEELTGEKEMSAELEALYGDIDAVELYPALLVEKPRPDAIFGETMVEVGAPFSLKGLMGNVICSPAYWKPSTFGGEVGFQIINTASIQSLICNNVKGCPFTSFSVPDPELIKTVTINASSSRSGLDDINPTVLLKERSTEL
Method: To confirm the acetylation site of COX2, the COX2 enzyme was precipitated with trichroloacetic acid (Merck) and dried. The dried extract was resuspended in 10 μL of 5M urea solution, and 0.1M ammonium bicarbonate buffer was incubated at 37° C. with 1 μg trypsin (Promega) for 16 hours. Then, the sample was treated with 1M DTT (GE Healthcare) at room temperature for 1 hour and then alkylated with 1M iodoacetamide (Sigma) for 1 hour. Protein samples were loaded onto a ZORBAX 300SB-C18 column for sequencing. Peptides were identified with BioTools 3.2 SR5 (Bruker Daltonics).
In addition, it was confirmed that serine 565 (S565) against the COX2 peptide 560-[…]-575 was acetylated in the presence of N-acetyl sphingosine (FIG. 8d).

APP/PS1 neurons = assay: neuroinflammatory resolution factor (SPMs) secretion in APP/PS1 neurons after COX2 acetylating agent treatment; type: cell-based, mouse; settings: 10 nM; FIG. 8b
Method: A commercially available ELISA kit (Biosource) was used, and the hemispheres of mice were homogenized and placed in a buffer containing 0.02M guanidine to prepare a sample for Aβ ELISA. In order to measure the neuroinflammatory resolution factor, conditioned media (CM) was prepared after culturing neurons from mouse cerebrum. Thereafter, according to the manufacturer's manual, ELISA for Aβ and SPM was performed.
In order to measure the neuroinflammatory resolution factor, after culturing neurons from mouse cerebrum, CM was prepared by treatment with 10 nM N-acetyl sphingosine 1 phosphate (Toronto Research chemicals, C262710) and N-acetyl sphingosine (Sigma, 01912). For COX2 acetylation analysis, neurons were cultured from mouse cerebrum and then treated with 2 uCi [^14C]N-acetyl sphingosine (ARC, ARC1024). In addition, for in vivo experiments, 7-month-old APP/PS1 mice were injected with 5 mg/kg N-acetyl sphingosine (Sigma, 01912), 1 mg/kg FTY720 and 3 uM S1P daily for 4 weeks via intraperitoneal injection. 1 month-old NPC mice were injected with 5 mg/kg N-acetyl sphingosine (Sigma, 01912) and 2-month-old FUS mice with 30 mg/kg N-acetyl sphingosine (Sigma, 01912) daily for 4 weeks via subcutaneous injection.
First, in order to confirm whether the selected compounds promote the secretion of neuroinflammatory resolution factor in neurons, after treatment with N-acetyl sphingosine 1 phosphate or N-acetyl sphingosine in APP/PS1 neurons, the expression levels of neuroinflammatory resolution factor were confirmed. As a result, it was confirmed that the expression levels of LxA4 and RvE1 in neurons of APP/PS1 mice were recovered when treated with N-acetyl sphingosine 1 phosphate or N-acetyl sphingosine (FIG. 8b).

acetylation of serine 565 (S565) of COX2 peptide 560-GCPFTSFSVPDPELIK-575 (COX2): acetylated
Structure (SMILES): CCCCCCCCCCCCC/C=C/[C@@H](O)[C@H](CO)NC(C)=O [N-acetyl sphingosine]
microglia (Iba1) in brain cortex vs NP-C mice (NP-C mice; FIG. 10a): remarkable decrease
astrocytes (GFAP) in brain cortex vs NP-C mice (NP-C mice; FIG. 10b): remarkable decrease
exercise capacity (Rota-rod, Beam test) vs NP-C mice (NP-C mice; FIGS. 10c and d): improved
expression level of LxA4 in neurons of APP/PS1 mice (APP/PS1 neurons): recovered
expression level of RvE1 in neurons of APP/PS1 mice (APP/PS1 neurons): recovered
